Data as given in publication PMC8466754, “Esterase-Sensitive Prodrugs of a Potent Bisubstrate Inhibitor of Nicotinamide N-Methyltransferase (NNMT) Display Cellular Activity” (Biomolecules, 2021).

Assays:
[1] = Ester stability assay in buffer (RP-HPLC); assay type: physicochemical; details: for percentage of compound peak area present after 16 h of incubation, PBS: PBS buffer pH 7.4, 16 h; for percentage of compound peak area present after 16 h of incubation, PBS / percentage of compound peak area present after 16 h of incubation, Tris: room temperature, 1 mM compound; for percentage of compound peak area present after 16 h of incubation, Tris: Tris buffer pH 8.4, 16 h; for hydrolytic stability in buffer (in words): PBS pH 7.4 and Tris pH 8.4, over 16 h
Method: The prodrugs were evaluated for their stability in both PBS buffer at pH 7.4 and Tris buffer at pH 8.4. The compounds were dissolved in DMSO at a concentration of 40 mM and diluted with the respective buffer to a final concentration of 1 mM. Compounds were tested directly (t0) and subsequently every 2 h over a time period of 16 h by HPLC. Compounds were eluted from a Dr. Maisch ReproSil-Pur C18 column (4.6 × 250 mm, 10 μm particle size, Dr. Maisch, Ammerbuch-Entringen, Germany) with the following solvent system at a flow rate of 0.5 mL/min: solvent A, 0.1% trifluoroacetic acid in water/acetonitrile (95:5); solvent B, 0.1% trifluoroacetic acid in water/acetonitrile (5:95). Gradient elution was as follows: 100:0 (A/B) to 0:100 (A/B) over 8 min, 0:100 (A/B) for 1 min, then reversion back to 100:0 (A/B) over 1 min, 100:0 (A/B) for 2 min. The formation of the parent compound was evaluated and normalized by measuring the peak area at 214 nm and comparing it to the initial timepoint.
All prodrugs prepared were first tested for their inhibitory activity against NNMT using a biochemical enzymatic activity assay. […] Both these buffers and pHs have been used in the different biochemical and cellular assays described in this report. Compounds were dissolved in DMSO at a concentration of 40 mM and diluted with the respective buffer to a final concentration of 1 mM. Compound stability was then assessed by RP-HPLC directly (t0) and subsequently every 2 h over a time period of 16 h. […] Even for the rather labile methyl ester 12b, the TML group in 14b results in a decrease in hydrolysis of the methyl ester.

[2] = biological target: T1, NNMT (Homo sapiens, UniProt P40261); assay: 1-Methylnicotinamide (MNA) quantification in A549 cells (LC-MS); details: A549 lung carcinoma cells; 0.1–100 µM; 24-h treatment (Figure 4)
T1 sequence (P40261 1-264): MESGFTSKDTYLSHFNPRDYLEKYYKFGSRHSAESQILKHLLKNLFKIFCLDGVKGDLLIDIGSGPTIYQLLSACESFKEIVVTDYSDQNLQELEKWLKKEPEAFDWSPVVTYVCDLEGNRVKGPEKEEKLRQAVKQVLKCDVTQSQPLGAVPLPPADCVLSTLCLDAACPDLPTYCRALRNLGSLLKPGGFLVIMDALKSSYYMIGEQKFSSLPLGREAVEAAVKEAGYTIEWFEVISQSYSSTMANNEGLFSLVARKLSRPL
Method: Human lung adenocarcinoma line (A549, ATCC, Manassas, VA, USA) was cultured according to the provider’s indications and seeded in 6-well format. […] After incubation, effluent samples were taken and frozen (−80 °C) for further MNA measurement. Cells also were collected, centrifuged (2 × 500 G/5 min.), and frozen both for the measurement of intracellular MNA and for BCA protein assay.
The quantification of 1-methylnicotinamide (MNA), nicotinamide (NA), nicotinic acid (NicA), 1-methyl-2-pyridone-5-carboxamide (Met-2Pyr), and 1-methyl-4-pyridone-5-carboxamide (Met-4Pyr) was performed by applying ultra-high pressure liquid chromatography coupled to tandem mass spectrometry (UPLC-MS) according to the methodology previously described with minor modifications [35]. A UPLC-MS system comprised of a UPLC Ultimate 3000 (Dionex, Thermo Scientific, Waltham, MA, USA) connected to a TSQ Quantum Ultra mass spectrometer (Thermo Scientific, Waltham, MA, USA) equipped with a heated electrospray ionization interface (HESI-II Probe, Waltham, MA, USA) was used. Chromatographic separation of analytes was carried out on an Aquasil C18 analytical column (4.6 mm × 150 mm, 5 mm; Thermo Scientific, Waltham, MA, USA) under isocratic elution using acetonitrile with 0.1% of formic acid (A) and 5 mM ammonium formate in water (B) as mobile phases delivered at the flow rate of 0.8 mL/min (A:B, 80:20, v/v). The cell pellet was resuspended in 60 µL of deionized water and 50 µL of suspension was transferred to a fresh test tube. An amount of 50 µL of effluent sample was used for the measurement of extracellular MNA. The internal standard (IS) containing MNA-d3 was added to each sample (5 µL) obtaining the final concentration of 500 ng/mL. After the sample mixing, the proteins were precipitated using 100 μL of acidified acetonitrile (0.1% of formic acid), and samples were mixed (10 min), cooled at 4 °C (15 min), and finally centrifuged (15,000× g, 15 min, 4 °C). A clear supernatant was transferred to a chromatographic vial and directly injected (5 µL) into UPLC-MS system. […] The concentration of MNA was calculated based on the calibration curve plotted for the analyte as the relationship between the peak area ratios of analyte/IS to the nominal concentration of the analyte. The concentration of analytes was normalized to milligram of proteins, which was assessed using a Pierce^TM BCA Protein Assay Kit (Thermo Fisher, Waltham, MA, USA) and a Synergy4 multiplate reader (BioTek, Winooski, VT, USA). […]
Using this assay, the levels of MNA produced by NNMT in an A549 lung carcinoma cell line can be quantified by means of a sensitive LC-MS method.

[3] = tested on: A549 human lung cancer line; assay: MTT cell viability assay, A549; assay type: cell-based
Method: (§1) HSC-2 human oral cancer cell line, T24 human bladder cancer cell line, and A549 human lung cancer line were cultured in DMEM/F12 medium and supplemented with 10% fetal bovine serum and 50 μg/mL gentamicin at 37 °C in a humidified 5% CO2 incubator. For each compound tested, powder was dissolved in DMSO at 100 mM concentration. This stock solution was then diluted in culture medium to final concentration values ranging between 1 µM and 100 µM. For each sample, DMSO was kept constant at 0.1% final concentration. The day before starting treatment, cells were seeded in 96-well plates, at a density of 2000 cells/well. Cells were allowed to attach overnight and then incubated with compounds at different concentrations, or with DMSO only, for 24, 48, and 72 h. All experiments were performed in triplicate.
(§2) Cell proliferation was determined using a colorimetric assay with 3-(4,5-dimethylthiazol-2-yl)-2,5-diphenyl tetrazolium bromide (MTT). The MTT assay measures the conversion of MTT to insoluble formazan by dehydrogenase enzymes of the intact mitochondria of living cells. Cell proliferation was evaluated by measuring the conversion of the tetrazolium salt MTT to formazan crystals upon treatment with compounds or DMSO only for 24, 48, and 72 h. Briefly, cells were incubated for 2 h at 37 °C with 100 µL fresh culture medium containing 5 µL of MTT reagent (5 mg/mL in PBS). The medium was removed and 200 µL isopropanol were added. The amount of formazan crystals formed correlated directly with the number of viable cells. The reaction product was quantified by measuring the absorbance at 540 nm using a plate reader. Experiments were repeated three times. Results were expressed as a percentage of the control (the control equals 100% and corresponds to the absorbance value of each sample at time zero) and presented as mean values ± standard deviation of three independent experiments performed in triplicate.

[4] = tested on: T24 human bladder cancer cell line; assay: MTT cell viability assay, T24; assay type: cell-based
Method: as §1, §2

[5] = tested on: pig liver esterase (PLE); assay: Esterase-mediated hydrolysis to the parent compound (RP-HPLC); assay type: in vitro ADME
Method: The conversion of the prodrugs to the parent compound by esterases was evaluated using pig liver esterase (PLE, 18 U/mg, Sigma-Aldrich, St. Louis, MO, USA) in PBS at pH 7.4. Compounds were dissolved in DMSO at 40 mM, diluted to a final concentration of 2 mM with PBS, and added to an equal volume of a 10 mg/mL solution of PLE in PBS (pH 7.4), resulting in final concentrations of 2.5% DMSO, 1 mM compound, and 5 mg/mL PLE. At different time-points 50 µL aliquots were taken, added to 100 µL acetonitrile to precipitate the proteins, and centrifuged for 5 min at 10,000 rpm. The supernatant was subsequently analyzed by HPLC as described in Section 2.2 above.
The next step was to establish whether compounds 12e and 14e are converted to the parent compound in the presence of an esterase.

[6] = tested on: HSC-2 human oral cancer cell line; assay: MTT cell viability assay, HSC-2; assay type: cell-based
Method: as §1, §2

CCOC(=O)[C@@H](N)CCN(C/C=C/c1ccc(C#N)cc1)C[C@H]1O[C@@H](n2cnc3c(N)ncnc32)[C@H](O)[C@@H]1O [Compound 12c, Ethyl-(S)-2-amino-4-((((2R,3S,4R,5R)-5-(6-amino-9H-purin-9-yl)-3,4-dihydroxytetrahydrofuran-2-yl)methyl)((E)-3-(4-cyanophenyl)allyl)amino)butanoate]
percentage of compound peak area present after 16 h of incubation, PBS [1]: 68.36%
percentage of compound peak area present after 16 h of incubation, Tris [1]: 54.84%

CC(=O)Oc1cc(C)cc(C)c1C(C)(C)CC(=O)N[C@@H](CCN(C/C=C/c1ccc(C#N)cc1)C[C@H]1O[C@@H](n2cnc3c(N)ncnc32)[C@H](O)[C@@H]1O)C(=O)OC(C)C [Compound 14e, Isopropyl-(S)-2-(3-(2-acetoxy-4,6-dimethylphenyl)-3-methylbutanamido)-4-((((2R,3S,4R,5R)-5-(6-amino-9H-purin-9-yl)-3,4-dihydroxytetrahydrofuran-2-yl)methyl)((E)-3-(4-cyanophenyl)allyl)amino)butanoate]
effect on cellular MNA levels [2]: even further enhanced
effect on cell viability (MTT) ([3]; 100 µM, 24, 48 and 72 h): time dependent reduction in cell viability
effect on cell viability (MTT) ([3]; 1 and 10 µM, 24, 48 and 72 h): no effects
percentage of compound peak area present after 16 h of incubation, PBS [1]: 91.13%
hydrolytic stability in buffer (in words) [1]: most stable
percentage of compound peak area present after 16 h of incubation, Tris [1]: 87.69%
effect on cell viability (MTT) ([4]; 100 µM, 24, 48 and 72 h): time dependent reduction in cell viability
effect on cell viability (MTT) ([4]; 1 and 10 µM, 24, 48 and 72 h): no effects
time to full conversion to the parent compound ([5]; 5 mg/mL PLE, PBS pH 7.4, 1 mM compound): ≤ 4 h
hydrolysis in the absence of PLE ([5]; PBS pH 7.4, without PLE): no hydrolysis was observed
effect on cell viability (MTT) ([6]; 100 µM, 24, 48 and 72 h): time dependent reduction in cell viability
effect on cell viability (MTT) ([6]; 1 and 10 µM, 24, 48 and 72 h): no effects

CCCOC(=O)[C@H](CCN(C/C=C/c1ccc(C#N)cc1)C[C@H]1O[C@@H](n2cnc3c(N)ncnc32)[C@H](O)[C@@H]1O)NC(=O)CC(C)(C)c1c(C)cc(C)cc1OC(C)=O [Compound 14d, Propyl-(S)-2-(3-(2-acetoxy-4,6-dimethylphenyl)-3-methylbutanamido)-4-((((2R,3S,4R,5R)-5-(6-amino-9H-purin-9-yl)-3,4-dihydroxytetrahydrofuran-2-yl)methyl)((E)-3-(4-cyanophenyl)allyl)amino)butanoate]
percentage of compound peak area present after 16 h of incubation, PBS [1]: 90.30%
percentage of compound peak area present after 16 h of incubation, Tris [1]: 87.52%

CCCOC(=O)[C@@H](N)CCN(C/C=C/c1ccc(C#N)cc1)C[C@H]1O[C@@H](n2cnc3c(N)ncnc32)[C@H](O)[C@@H]1O [Compound 12d, Propyl-(S)-2-amino-4-((((2R,3S,4R,5R)-5-(6-amino-9H-purin-9-yl)-3,4-dihydroxy-tetrahydrofuran-2-yl)methyl)((E)-3-(4-cyanophenyl)allyl)amino)butanoate]
percentage of compound peak area present after 16 h of incubation, PBS [1]: 71.96%
percentage of compound peak area present after 16 h of incubation, Tris [1]: 61.32%

COC(=O)[C@H](CCN(C/C=C/c1ccc(C#N)cc1)C[C@H]1O[C@@H](n2cnc3c(N)ncnc32)[C@H](O)[C@@H]1O)NC(=O)CC(C)(C)c1c(C)cc(C)cc1OC(C)=O [Compound 14b, Methyl-(S)-2-(3-(2-acetoxy-4,6-dimethylphenyl)-3-methylbutanamido)-4-((((2R,3S,4R,5R)-5-(6-amino-9H-purin-9-yl)-3,4-dihydroxytetrahydrofuran-2-yl)methyl)((E)-3-(4-cyanophenyl)allyl)amino)butanoate]
percentage of compound peak area present after 16 h of incubation, PBS [1]: 88.08%
percentage of compound peak area present after 16 h of incubation, Tris [1]: 73.88%

N#Cc1ccc(/C=C/CN(CC[C@H](N)C(=O)OCc2ccccc2)C[C@H]2O[C@@H](n3cnc4c(N)ncnc43)[C@H](O)[C@@H]2O)cc1 [Compound 12f, Benzyl-(S)-2-amino-4-((((2R,3S,4R,5R)-5-(6-amino-9H-purin-9-yl)-3,4-dihydroxy-tetrahydrofuran-2-yl)methyl)((E)-3-(4-cyanophenyl)allyl)amino)butanoate]
percentage of compound peak area present after 16 h of incubation, PBS [1]: 33.43%
hydrolytic stability in buffer (in words) [1]: least stable
percentage of compound peak area present after 16 h of incubation, Tris [1]: 21.60%

CNc1ccc(C(N)=O)cn1 [Compound 6-MANA, 6-methylamino-nicotinamide, reference compound]
effect on cellular MNA levels [2]: high concentrations of both 6-MANA and GYZ-319 are required to substantially decrease the levels of MNA
effect on cell viability (MTT) ([3]; 100 µM, 24, 48 and 72 h): no effect
effect on cell viability (MTT) ([3]; 1 and 10 µM, 24, 48 and 72 h): no effects
effect on cell viability (MTT) ([4]; 100 µM, 24, 48 and 72 h): no effect
effect on cell viability (MTT) ([4]; 1 and 10 µM, 24, 48 and 72 h): no effects
effect on cell viability (MTT) ([6]; 100 µM, 24, 48 and 72 h): no effect
effect on cell viability (MTT) ([6]; 1 and 10 µM, 24, 48 and 72 h): no effects

CCOC(=O)[C@H](CCN(C/C=C/c1ccc(C#N)cc1)C[C@H]1O[C@@H](n2cnc3c(N)ncnc32)[C@H](O)[C@@H]1O)NC(=O)CC(C)(C)c1c(C)cc(C)cc1OC(C)=O [Compound 14c, Ethyl-(S)-2-(3-(2-acetoxy-4,6-dimethylphenyl)-3-methylbutanamido)-4-((((2R,3S,4R,5R)-5-(6-amino-9H-purin-9-yl)-3,4-dihydroxytetrahydrofuran-2-yl)methyl)((E)-3-(4-cyanophenyl)allyl)amino)butanoate]
percentage of compound peak area present after 16 h of incubation, PBS [1]: 90.44%
percentage of compound peak area present after 16 h of incubation, Tris [1]: 87.00%

COC(=O)[C@@H](N)CCN(C/C=C/c1ccc(C#N)cc1)C[C@H]1O[C@@H](n2cnc3c(N)ncnc32)[C@H](O)[C@@H]1O [Compound 12b, Methyl-(S)-2-amino-4-((((2R,3S,4R,5R)-5-(6-amino-9H-purin-9-yl)-3,4-dihydroxy-tetrahydrofuran-2-yl)methyl)((E)-3-(4-cyanophenyl)allyl)amino)butanoate]
percentage of compound peak area present after 16 h of incubation, PBS [1]: 36.97%
percentage of compound peak area present after 16 h of incubation, Tris [1]: 22.59%
